Source: US20250018030A1, “PHARMACEUTICAL COMPOSITION FOR PROMOTING CANCER IMMUNOTHERAPY AND METHOD FOR PROMOTING CANCER IMMUNOTHERAPY” (China Medical University, priority 2023, published 2025)

Key:
Tc17 cells = assay: Intracellular cytokine staining / flow cytometry of genipin-treated skewed Tc17 cells; format: cell-based, Mouse; conditions: FIG. 1E-1G
Procedure: Mouse lymph nodes and spleens were harvested, and naïve CD4 or CD8 T cells isolated via magnetic bead separation (STEMCELL Technologies) and activated in α-CD3 (10 μg/ml) and α-CD28 (1 μg/ml) pre-coated 96-well plates. Skewing conditions were as follows: Th1 cells/Tc1 cells ([…] 10 μ/ml α-IL-4), Th2 cells/Tc2 cells (20 ng/ml IL-4 and 10 μ/ml α-IFN-γ), Th17 cells/Tc17 cells (20 ng/ml IL-6, 1.25 ng/ml […], 20 ng/ml IL-1β, 20 ng/ml IL-23, 10 μg/ml α-IFN-γ and 10 μg/ml α-IL-4), and Treg cells (5 ng/ml TGF-β, 10 μg/ml α-IFN-γ and 10 μg/ml α-IL-4) in the indicated medium. Cells were cultured for 4-5 days followed by treatment with genipin (3.125 μM, 6.25 μM, 12.5 μM) or DMSO for 12-16 hours.
(§1) Monoclonal antibodies were purchased from BD Biosciences or eBioscience. For intracellular cytokine staining (ICS), cells were first restimulated by PMA/ionomycin for 5 hours in the presence of GolgiStop (BD Biosciences), followed by surface epitope staining markers before being fixed/permeabilized (BD Cytofix/Cytoperm™) and stained with antibodies targeting intracellular antigens. Cells were finally fixed with 1.5% formaldehyde for 10 minutes at room temperature and analyzed on a FACSVerse flow cytometer (BD Bioscience). Data were analyzed using FlowJo software (Tree Star Inc.).

B16F10 cells = assay: Melanoma model, B16F10 subcutaneous implantation; format: in vivo; conditions: IL-17−/− mice
Procedure: as §1
For Pan18-subcutaneous implantation, 5×10^5 Pan18 cells were administered to wild-type (WT) or IL-17^−/− mice. Genipin (5 mg/kg, 10 mg/kg, or 30 mg/kg, i.p., every two days) was administered to Pan18-bearing mice for 3 weeks. For 3036-subcutanous implantation, 2×10^5 3036 cells were administered to WT mice. Genipin (10 mg/kg, i.p., every two days) and recombinant anti-IL-17 receptor antibody (αIL-17RA) (1 mg/kg, i.v., once a week) were administered to 3036-bearing mice for 3 weeks. Tumor volumes were evaluated every 2 days. For the orthotopic tumor modelling, mice pancreases were injected with 2×10^5 Pan18 cells and monitored for tumor growth weekly using IVIS kinetics imaging system (Caliper Life-Sciences). Genipin (10 mg/kg, i.p., every two days) or αIL-17RA (1 mg/kg, i.v., once a week) was administered 1 week after tumor implantation. Mice were sacrificed 35 days after tumor induction and tumors weighed. For spontaneous pancreatic cancer model, Cre-dependent conditional knockin mutations of KrasG12D Kras^+/LSLG12D mice (B6; 129-Kras2) were obtained from the Mouse Models of Human Cancer Consortium. Elas-CreERT; Kras^+/LSLG12D mice was generated by breeding Kras^+/LSLG12D mice with Elas-CreER mice obtained from the Level Transgenic Center. To induce the expression of Kras^+/LSLG12D in acinar cells, 5-week-old Elas-CreERT; Kras^+/LSLG12D male mice were injected with 100 μl of tamoxifen (20 mg/ml, i.p., three times per week) for 1 week. To induce chronic inflammation and tumors, 100 μl of cerulein (50 μg/ml, i.p., six times per week) (BACHEM) was given to the mice for 3 weeks. Then, the mice were injected with genipin (10 mg/kg, i.p., every two days) and αIL-17RA (1 mg/kg, i.v., once a week) until the end of the experiment, and overall survival was monitored. For genetically CD4/CD8-specific UCP2 deletion tumor modelling, we generated CD4Cre×UCP2^f/f mice by crossing loxP-UCP2-loxP mice with CD4Cre mice. CD4Cre×UCP2^f/f, WT, and loxP control mice underwent subcutaneous implantation of 2×10^5 Pan18 cells, followed by treatment with αIL-17RA (1 mg/kg, i.v., once a week) for 3 weeks. For melanoma modelling, IL-17/-and WT mice underwent subcutaneous implantation of 5×10^5 B16F10 cells, followed by treatment with genipin (10 mg/kg, i.p., every two days) for 3 weeks. For CD8 depletion tumor modelling, IL-17^−/− mice underwent subcutaneous implantation of 2×10^5 Pan18 cells, followed by treatment with genipin (10 mg/kg, i.p., every two days) and CD8 neutralizing antibody (5 mg/kg, i.v., once a week) for 3 weeks. Tumor volumes were evaluated every 3 days.

PBMC of PDAC patients = assay: Ex vivo genipin treatment of PBMC of PDAC patients, flow cytometry; format: cell-based, human
Procedure: as §1
PDAC human subject study was approved by the Research Ethics Committee of China Medical University & Hospital (CMUH109-REC2-148). 10 ml of fresh blood and 0.1-0.5 mm^3 of tumor mass were collected on the same day from patients who underwent surgical resection. Monocytes were isolated from the patients' peripheral blood mononuclear cell (PBMC) or tumor mass. Cells were resuspended in RPMI medium containing 10% FBS and seeded at a density of 2×10^5/well in a 12-well plate. Cells were treated with genipin (12.5 μM, 25 μM) and incubated overnight before staining for the flow cytometry analysis.

Tc1 cells = assay: Immunoblotting of PI3K/AKT/mTOR and STAT4 in Tc1 cells; format: cell-based, Mouse
Procedure: The protein concentrations of the total cell lysate or the extracted histones were determined by a Bradford assay (Bio-Rad Laboratories). Immunoblot analysis was performed with 10% sodium dodecyl sulfate-polyacrylamide gel electrophoresis, followed by overnight incubation with primary antibodies (1:1000 dilution) and incubation with horseradish peroxidase-conjugated secondary antibodies (1:5000 dilution; GeneTex). The polyvinylidene difluoride membranes were probed with antibodies against UCP2, pPI3K/PI3K, pAKT/AKT, pmTOR/mTOR, pSTAT1/STAT1, pSTAT4/STAT4, and H3K9Ac, which were purchased from Cell Signaling Technology or Genetex. Actin or Lamin B1 (Merck-Millipore) was used as the loading control. Signals were detected using an ECL solution (GE) and optical density quantified using ImageJ software.

## COC(=O)C1=CO[C@@H](O)[C@@H]2C(CO)=CC[C@H]12 [genipin]
Tc17 cells
  IFN-γ production in Tc17 cells: promoted IFN-γ
  IL-17 expression in Tc17 cells: without impacting IL-17 expression
B16F10 cells; genipin 10 mg/kg i.p. every two days, 3 weeks, FIG. 7B
  Tumor growth (tumor volume): additional effect on the inhibition of tumor growth
B16F10 cells; genipin 10 mg/kg, FIG. 7C
  Population of Tc1 cells: increased the expansion of Tc1 cells
B16F10 cells; genipin 10 mg/kg, FIG. 7D
  Population of Th1 cells: not significantly impacting
B16F10 cells; genipin 10 mg/kg, FIG. 7E
  Population of Treg cells: not significantly impacting
B16F10 cells; genipin 10 mg/kg, FIG. 7F
  Prevalence of MDSC: decreasing prevalence of MDSC
PBMC of PDAC patients; genipin 12.5, 25 μM overnight, FIG. 8A-8B
  Tc1 cells (IFN-γ-producing CD8+ T cells): increased Tc1 cells
PBMC of PDAC patients; genipin overnight, FIG. 8E
  Th1 cells population (IFN-γ-producing CD4+ T cells): no significant changes
PBMC of PDAC patients; genipin overnight, FIG. 8F
  Th17 cells (IL-17-producing CD4+ T cells): did not increase
Tc1 cells; genipin 12 hours, FIG. 2Q
  STAT4 levels / activation: STAT4 activation
Tc1 cells; genipin-treated Tc1 cells
  Expression of mTOR and its upstream kinases PI3K and AKT: increased
